Assay results as given in BigSolDB 2.1.

Compound: N[C@@H](Cc1ccc([N+](=O)[O-])cc1[N+](=O)[O-])C(=O)O
- solubility (mole fraction) (in 1,2-dichloroethane, 273.15 K): 2.2e-09
- solubility (mole fraction) (in 1,2-dichloroethane, 283.15 K): 8.6e-09
- solubility (mole fraction) (in 1,2-dichloroethane, 293.15 K): 3.08e-08
- solubility (mole fraction) (in 1,2-dichloroethane, 303.15 K): 1.05e-07
- solubility (mole fraction) (in 1,2-dichloroethane, 313.15 K): 3.27e-07
- solubility (mole fraction) (in 1,2-dichloroethane, 323.15 K): 9.77e-07
- solubility (mole fraction) (in 1,2-dichloroethane, 333.15 K): 2.69e-06
- solubility (mole fraction) (in acetone, 273.15 K): 1.58e-06
- solubility (mole fraction) (in acetone, 278.15 K): 1.64e-06
- solubility (mole fraction) (in acetone, 283.15 K): 1.72e-06
- solubility (mole fraction) (in acetone, 288.15 K): 1.91e-06
- solubility (mole fraction) (in acetone, 293.15 K): 2.15e-06
- solubility (mole fraction) (in acetone, 298.15 K): 2.56e-06
- solubility (mole fraction) (in acetone, 303.15 K): 3.06e-06
- solubility (mole fraction) (in acetone, 308.15 K): 3.99e-06
- solubility (mole fraction) (in acetone, 313.15 K): 5.26e-06
- solubility (mole fraction) (in acetone, 318.15 K): 7.14e-06
- solubility (mole fraction) (in acetone, 323.15 K): 1.01e-05
- solubility (mole fraction) (in acetone, 328.15 K): 1.45e-05
- solubility (mole fraction) (in acetone, 333.15 K): 2.19e-05
- solubility (mole fraction) (in ethanol, 273.15 K): 3.44e-05
- solubility (mole fraction) (in ethanol, 283.15 K): 9.2e-05
- solubility (mole fraction) (in ethanol, 293.15 K): 0.000195
- solubility (mole fraction) (in ethanol, 303.15 K): 0.00035
- solubility (mole fraction) (in ethanol, 313.15 K): 0.00051
- solubility (mole fraction) (in ethanol, 323.15 K): 0.000671
- solubility (mole fraction) (in ethanol, 333.15 K): 0.000772
- solubility (mole fraction) (in ethanol, 343.15 K): 0.00079
- solubility (mole fraction) (in ethanol, 353.15 K): 0.000791
- solubility (mole fraction) (in ethyl acetate, 303.15 K): 9.1e-09
- solubility (mole fraction) (in ethyl acetate, 313.15 K): 1.88e-07
- solubility (mole fraction) (in ethyl acetate, 323.15 K): 1.88e-06
- solubility (mole fraction) (in ethyl acetate, 333.15 K): 1.12e-05
- solubility (mole fraction) (in ethyl acetate, 343.15 K): 3.58e-05
- solubility (mole fraction) (in ethyl acetate, 348.15 K): 5.44e-05
- solubility (mole fraction) (in isopropanol, 273.15 K): 1.51e-06
- solubility (mole fraction) (in isopropanol, 278.15 K): 2.96e-06
- solubility (mole fraction) (in isopropanol, 283.15 K): 5.45e-06
- solubility (mole fraction) (in isopropanol, 288.15 K): 9.49e-06
- solubility (mole fraction) (in isopropanol, 293.15 K): 1.56e-05
- solubility (mole fraction) (in isopropanol, 298.15 K): 2.42e-05
- solubility (mole fraction) (in isopropanol, 303.15 K): 3.57e-05
- solubility (mole fraction) (in isopropanol, 308.15 K): 5.03e-05
- solubility (mole fraction) (in isopropanol, 313.15 K): 6.78e-05
- solubility (mole fraction) (in isopropanol, 318.15 K): 8.75e-05
- solubility (mole fraction) (in isopropanol, 323.15 K): 0.000109
- solubility (mole fraction) (in isopropanol, 328.15 K): 0.00013
- solubility (mole fraction) (in isopropanol, 333.15 K): 0.00015
- solubility (mole fraction) (in isopropanol, 338.15 K): 0.000167
- solubility (mole fraction) (in methanol, 273.15 K): 1.5e-05
- solubility (mole fraction) (in methanol, 278.15 K): 4.12e-05
- solubility (mole fraction) (in methanol, 283.15 K): 9.1e-05
- solubility (mole fraction) (in methanol, 288.15 K): 0.000192
- solubility (mole fraction) (in methanol, 293.15 K): 0.000365
- solubility (mole fraction) (in methanol, 298.15 K): 0.000578
- solubility (mole fraction) (in methanol, 303.15 K): 0.000909
- solubility (mole fraction) (in methanol, 308.15 K): 0.00123
- solubility (mole fraction) (in methanol, 313.15 K): 0.00155
- solubility (mole fraction) (in methanol, 318.15 K): 0.00181
- solubility (mole fraction) (in methanol, 323.15 K): 0.00196
- solubility (mole fraction) (in methanol, 328.15 K): 0.00197
- solubility (mole fraction) (in methanol, 333.15 K): 0.00198
- solubility (mole fraction) (in n-butanol, 273.15 K): 3.84e-06
- solubility (mole fraction) (in n-butanol, 283.15 K): 3.91e-06
- solubility (mole fraction) (in n-butanol, 293.15 K): 3.99e-06
- solubility (mole fraction) (in n-butanol, 303.15 K): 4.28e-06
- solubility (mole fraction) (in n-butanol, 313.15 K): 5.01e-06
- solubility (mole fraction) (in n-butanol, 323.15 K): 6.29e-06
- solubility (mole fraction) (in n-butanol, 333.15 K): 8.34e-06
- solubility (mole fraction) (in n-butanol, 343.15 K): 1.15e-05
- solubility (mole fraction) (in n-butanol, 353.15 K): 1.69e-05
- solubility (mole fraction) (in n-butanol, 363.15 K): 2.6e-05
- solubility (mole fraction) (in n-propanol, 273.15 K): 2.58e-06
- solubility (mole fraction) (in n-propanol, 283.15 K): 3.54e-06
- solubility (mole fraction) (in n-propanol, 293.15 K): 5.64e-06
- solubility (mole fraction) (in n-propanol, 303.15 K): 1.01e-05
- solubility (mole fraction) (in n-propanol, 313.15 K): 2.04e-05
- solubility (mole fraction) (in n-propanol, 323.15 K): 4.55e-05
- solubility (mole fraction) (in n-propanol, 333.15 K): 0.000113
- solubility (mole fraction) (in n-propanol, 343.15 K): 0.000294
- solubility (mole fraction) (in n-propanol, 353.15 K): 0.000812
- solubility (mole fraction) (in n-propanol, 363.15 K): 0.00241
- solubility (mole fraction) (in n-propanol, 368.15 K): 0.00424
- solubility (mole fraction) (in sec-butanol, 273.15 K): 6.49e-07
- solubility (mole fraction) (in sec-butanol, 283.15 K): 6.79e-07
- solubility (mole fraction) (in sec-butanol, 293.15 K): 6.92e-07
- solubility (mole fraction) (in sec-butanol, 303.15 K): 7.79e-07
- solubility (mole fraction) (in sec-butanol, 313.15 K): 9.45e-07
- solubility (mole fraction) (in sec-butanol, 323.15 K): 1.23e-06
- solubility (mole fraction) (in sec-butanol, 333.15 K): 1.71e-06
- solubility (mole fraction) (in sec-butanol, 343.15 K): 2.49e-06
- solubility (mole fraction) (in sec-butanol, 353.15 K): 3.87e-06
- solubility (mole fraction) (in sec-butanol, 363.15 K): 6.11e-06
- solubility (mole fraction) (in water, 273.15 K): 8.5e-08
- solubility (mole fraction) (in water, 283.15 K): 1.12e-06
- solubility (mole fraction) (in water, 293.15 K): 9.26e-06
- solubility (mole fraction) (in water, 303.15 K): 5.12e-05
- solubility (mole fraction) (in water, 313.15 K): 0.000189
- solubility (mole fraction) (in water, 323.15 K): 0.000523
- solubility (mole fraction) (in water, 333.15 K): 0.00107
- solubility (mole fraction) (in water, 343.15 K): 0.00166
- solubility (mole fraction) (in water, 353.15 K): 0.00193
- solubility (mole fraction) (in water, 363.15 K): 0.00198
- solubility (mole fraction) (in water, 368.15 K): 0.00201
